The text below walks through data of patent US10925884B2, “Methods of diagnosing and treating hepatocellular carcinoma” (MacKay Memorial Hospital, priority 2017, dated 2021).

In test [1] the test system is phosphorylated ERK (p-ERK). The test can be described thus: Western blot analysis of p-ERK in Mahlavu cells. The note with it: Mahlavu cells after trilostane treatment, FIG. 3. The test is classed as cell-based, Human. As to the method: (§1) Total cellular proteins were extracted, quantified, and subject to gel electrophoresis. Whole-cell lysates were isolated from Mahlavu cells. Equal amounts of proteins (40 μg/lane) were electrophoresed in 10% sodium dodecyl sulfatepolyacrylamide gel. The transferred membrane was blocked with 5% defatted milk and immunoblotted with primary antibodies against various proteins, including ERK (total form), p-ERK, p-AKT, E-cadherin, N-cadherin, Snail1, Twist, Vimentin, MLC II (total form), p-MLC II, ROCK, and GAPDH at room temperature for 3 hours. The antigen-antibody complexes were visualized with by chemiluminescence with the Amersham ECL detection system (GE Healthcare, Piscataway, N.J.).

Test [2] deals with Mahlavu cells. Description: Colony forming assay, Mahlavu cells. The test is classed as cell-based, Human. The note with it: various dosage of trilostane, 10 to 13 days, FIG. 2A. On the procedure:
(§2) Human HCC cancer cell lines (including Mahlavu, Hep3B, and Huh7) were cultured in Dulbecco's modified Eagle medium (DMEM), supplemented with 10% (v/v) fetal bovine serum and antibiotics (100 units/mL penicillin, 100 μg/mL streptomycin, and 2.5 μg/mL amphotericin B). All cell lines have been periodically authenticated by short tandem repeat analysis at Bioresource Collection and Research Center, Hsinchu, Taiwan (R.O.C.) and tested for being mycoplasma free. Trilostane was purchased from LKT Laboratories, St. Paul, Minn. A total of 500 Mahlavu or Hep3B HCC cancer cells were seeded into 6-well plate and treated with various dosage of trilostane. The medium was replaced every 3 days. After 10 to 13 days, colonies were stained with 3% crystal violet and examined by microscopy. Colonies containing at least 50 individual cells were counted.

The test system of test [3] is phosphorylated MEKK1 (p-MEKK1). The test can be described thus: Western blot analysis of p-MEKK1 in Mahlavu cells. The test is classed as cell-based, Human. The note with it: Mahlavu cells after trilostane treatment, FIG. 3. As to the method:
as §1
On the technique in general: A western blot detects proteins with antibodies after separation by electrophoresis.

In test [4] the test system is Hep3B cells. Description: Colony forming assay, Hep3B cells. Type of test: cell-based, Human. The note with it: various dosage of trilostane, 10 to 13 days, FIG. 2B. On the procedure: as §2
For the next test, the system named is mahlave cells. Description: Transwell migration assay. Type of test: cell-based, Human. The note with it: FIG. 2E.
Test [5] deals with Mahlavu cells. The test can be described thus: Wound healing assay, Mahlavu cells. The test is classed as cell-based, Human. The note with it: 24 hours, FIG. 2C. As to the method: (§3) Human HCC cancer cell lines (including Mahlavu, Hep3B, and Huh7) were cultured in Dulbecco's modified Eagle medium (DMEM), supplemented with 10% (v/v) fetal bovine serum and antibiotics (100 units/mL penicillin, 100 μg/mL streptomycin, and 2.5 μg/mL amphotericin B). All cell lines have been periodically authenticated by short tandem repeat analysis at Bioresource Collection and Research Center, Hsinchu, Taiwan (R.O.C.) and tested for being mycoplasma free. Trilostane was purchased from LKT Laboratories, St. Paul, Minn. Mahlavu and Hep3B cells (2×10^5 cells/well) were seeded into 6-well plates and grown to confluence overnight. A wound was made by scraping with a sterilized 200-μL pipette tip in the middle of the cell monolayer, and the cells were allowed to migrate to the denuded area for 24 hours. The percentage of wound closure was measured using Olympus IX71 light microscope (Olympus, Tokyo, Japan).

The test system of test [6] is Mahlavu cells. The test can be described thus: In vivo xenograft model of HCC. The note with it: Mahlavu xenograft in BALB/c nude mice, 30 or 60 mg/kg intraperitoneally every day for 18 days; FIG. 4. On the procedure: All animal experiments were approved by the Institutional Animal Care and Use Committee of MacKay Memorial Hospital (Taiwan, R.O.C.). 6-week-old male BALB/c nude mice were injected subcutaneously with 1.0×10^7 Mahlavu cells into the bilateral back pad. When the tumor growth reached 50 mm^3, mice were randomly divided into three groups (n=5 mice each group): (1) low-dose group, in which 30 mg/kg of trilostane was intraperitoneally administered to the mouse every day for 18 days; (2) high-dose group, in which 60 mg/kg of trilostane was intraperitoneally administered to the mouse every day for 18 days; and (3) control group, in which vehicle control (Dimethyl sulfoxide, DMSO) of the same volume was intraperitoneally administered to the mouse every day for 18 days. The tumor volume was measured twice a week by the same investigator, and mice were sacrificed when tumors reached 10% of body weight.

The test system of test [7] is Hep3B cells. Description: Wound healing assay, Hep3B cells. The note with it: 24 hours, FIG. 2D. Type of test: cell-based, Human. As to the method:
as §3

`C[C@]12CC[C@H]3[C@@H](CC[C@@]45O[C@@H]4C(O)=C(C#N)C[C@]35C)[C@@H]1CC[C@@H]2O` [trilostane]: the “expression of phosphorylated ERK (p-ERK)” value in test [1] is on record as “down-regulated”. Further, the colony numbers result with Mahlavu cells [2] and in the test on Hep3B cells [4] was “decreased colony numbers” throughout. For the same molecule, the “expression of phosphorylated MEKK1 (p-MEKK1)” value in test [3] is on record as “down-regulated”. The cell migration entry with mahlave cells was “inhibitory effect”. For the same molecule, the wound closure result in the test on Mahlavu cells [5] and in the test with Hep3B cells [7] was “significantly inhibited the wound closure” each time. For the same molecule, the tumor growth rate result in the test with Mahlavu cells [6] is “significantly suppressed”.
